Results on eight compounds are retold here after ChEMBL document CHEMBL2385007, “Synthesis and biological evaluation of prodrugs of 2-fluoro-2-deoxyribose-1-phosphate and 2,2-difluoro-2-deoxyribose-1-phosphate” (Bioorg Med Chem Lett, 2013).

Data set [1] can be described thus: Half life of the compound in fluka 82567 buffer at pH 7 by HPLC analysis. It is filed as physicochemical.
Data set [2] is described as follows: Half life of the compound in fluka 82564 buffer at pH 2 by HPLC analysis. It is filed as physicochemical.
Data set [3] is described as follows: Cytotoxicity against human HEL cells. The format is cell-based.
A short description of data set [4]: Cytotoxicity against cat CRFK cells. It is filed as cell-based, Felis catus.
The test system of the next data set is CCRF-CEM. Nature of the data set: Cytotoxicity against human CEM cells. The format is cell-based.
In the next data set the test system is L1210. Nature of the data set: Cytotoxicity against mouse L1210 cells. The format is cell-based.
For data set [5], the system named is Human immunodeficiency virus 2. Nature of the data set: Antiviral activity against HIV-2 ROD infected in human CEM cells assessed as HIV-induced host giant cell formation after 4 days by microscopic analysis. It is filed as functional, organism-based. As to conditions: Human immunodeficiency virus 2, ISOLATE ROD, CCRF-CEM, 96 h.
For data set [6], the system named is Human immunodeficiency virus 1. Description: Antiviral activity against HIV-1 3B infected in human CEM cells assessed as HIV-induced host giant cell formation after 4 days by microscopic analysis. It is filed as functional, organism-based. Particulars: Human immunodeficiency virus 1, 3B, CCRF-CEM, 96 h.
For a further data set, the system named is Felid alphaherpesvirus 1. Description: Antiviral activity against Feline herpesvirus in cat CrFK cells assessed as plaque formation. It is filed as functional, organism-based. As to conditions: Felid alphaherpesvirus 1, CRFK.
The next data set deals with Feline coronavirus. Nature of the data set: Antiviral activity against Feline coronavirus in cat CrFK cells assessed as plaque formation. As to conditions: Alphacoronavirus 1, CRFK. The format is functional, organism-based.
Another data set deals with Cytomegalovirus. Nature of the data set: Antiviral activity against Cytomegalovirus Davis infected in HEL cells assessed as inhibition of virus-induced cytopathicity. It is filed as functional, organism-based. Particulars: Human betaherpesvirus 5, Davis.
For another data set, the system named is Human betaherpesvirus 5. Nature of the data set: Antiviral activity against Cytomegalovirus AD-169 infected in HEL cells assessed as inhibition of virus-induced cytopathicity. The format is functional, organism-based. As to conditions: Human betaherpesvirus 5, AD169, HEL.
The subject of data set [7] is Human alphaherpesvirus 3. Description: Antiviral activity against Varicellla-zoster virus 07-1 infected in HEL cells assessed as inhibition of virus-induced cytopathicity. Particulars: Human alphaherpesvirus 3, 07-1, HEL. The format is functional, organism-based.
Data set [8] deals with Human alphaherpesvirus 3. Nature of the data set: Antiviral activity against Varicellla-zoster virus Oka infected in HEL cells assessed as inhibition of virus-induced cytopathicity. It is filed as functional, cell-based. Particulars: Human alphaherpesvirus 3, strain Oka vaccine.
In data set [9] the test system is Human alphaherpesvirus 1. Nature of the data set: Antiviral activity against thymidine kinase-deficient ACV-resistant HSV-1 KOS infected in HEL cells assessed as inhibition of virus-induced cytopathicity. It is filed as functional, organism-based. As to conditions: Human alphaherpesvirus 1, KOS.
The subject of data set [10] is Vesicular stomatitis virus. Nature of the data set: Antiviral activity against Vesicular somatitis virus infected in HEL cells assessed as inhibition of virus-induced cytopathicity. It is filed as functional, organism-based.
The subject of another data set is Vaccinia virus. Nature of the data set: Antiviral activity against Vaccinia virus Lederle infected in HEL cells assessed as inhibition of virus-induced cytopathicity. The format is functional, organism-based. As to conditions: Orthopoxvirus vaccinia.
The next data set has as its system Human alphaherpesvirus 2. Nature of the data set: Antiviral activity against HSV-2 G infected in HEL cells assessed as inhibition of virus-induced cytopathicity. As to conditions: Human alphaherpesvirus 2, strain G. The format is functional, organism-based.
Data set [11] concerns Human alphaherpesvirus 1. Description: Antiviral activity against HSV-1 KOS infected in HEL cells assessed as inhibition of virus-induced cytopathicity. It is filed as functional, organism-based. As to conditions: Human alphaherpesvirus 1, KOS.
Data set [12] can be described thus: Stability of the compound at -20 degC assessed as compound degradation after 4 months by HPLC analysis. It is filed as physicochemical. As to conditions: 2922 h.
A short description of data set [13]: Stability of the compound in fluka 82571 buffer at pH 5 assessed as compound degradation after 2 days by HPLC analysis. It is filed as physicochemical. Particulars: pH 5, 48 h.
A short description of data set [14]: Stability of the compound in fluka 82567 buffer at pH 7 assessed as compound degradation after 2 days by HPLC analysis. Particulars: pH 7, 48 h. The format is physicochemical.

Regarding `C[C@H](NP(=O)(Oc1ccccc1)O[C@H]1O[C@H](CO)[C@@H](O)[C@@H]1F)C(=O)OC1CCCCC1` (some centres undefined), the t1/2 in data set [1] turned out to be 2 h; in [2], 1.07 h.
Compound `C[C@H](NP(=O)(Oc1ccccc1)O[C@H]1O[C@H](CO)[C@@H](O)C1(F)F)C(=O)OC1CCCCC1` (mixture of isomers) showed an MCC in data set [3] of no less than 100 µM. Further, the CC50 in data set [4] was greater than 100 µM. Moreover, the IC50 with CCRF-CEM and with L1210 was greater than 30 µM throughout. Also, the concentration giving a half-maximal response (EC50) is greater than 250 µM in [5]; greater than 250 µM in [6]; greater than 20 µM in the data set with Felid alphaherpesvirus 1; greater than 20 µM in the data set on Feline coronavirus; greater than 20 µM with Cytomegalovirus; greater than 20 µM in the data set on Human betaherpesvirus 5. Further, the EC50 (in the data set on Human alphaherpesvirus 3 [7]; in the data set on Human alphaherpesvirus 3 [8]; with Human alphaherpesvirus 1 [9]; in [10]; in the data set with Vaccinia virus; with Human alphaherpesvirus 2) was greater than 20 µM each time. In addition, in the data set on Human alphaherpesvirus 1 [11], the EC50 was greater than 20 µM. Besides, the Stability result in data set [12], in data set [13] and in data set [14] was “Stable” in each case.
As to `C[C@H](NP(=O)(Oc1ccccc1)O[C@@H]1O[C@H](CO)[C@@H](O)C1(F)F)C(=O)OCC(C)(C)C` (mixture of isomers), the MCC in [3] was no less than 100 µM. For the same compound, the CC50 in [4] is greater than 100 µM. Also, the half-inhibitory concentration (IC50) with CCRF-CEM and with L1210 was greater than 30 µM in each case. Further, the concentration for a half-maximal effect (EC50) in [5] was greater than 250 µM; in data set [6] it was greater than 250 µM; in the data set on Felid alphaherpesvirus 1, greater than 20 µM; in the data set with Feline coronavirus it was greater than 20 µM; with Cytomegalovirus, greater than 20 µM; with Human betaherpesvirus 5 it was greater than 20 µM. The EC50 (in the data set with Human alphaherpesvirus 3 [7]; with Human alphaherpesvirus 3 [8]; in the data set with Human alphaherpesvirus 1 [9]; in [10]; in the data set on Vaccinia virus; with Human alphaherpesvirus 2) was greater than 20 µM each time. For the same compound, in the data set with Human alphaherpesvirus 1 [11], the 50% effective concentration (EC50) was greater than 20 µM.
Turning to `COC(=O)[C@H](C)NP(=O)(Oc1ccccc1)O[C@@H]1O[C@H](CO)[C@@H](O)C1(F)F` (mixture of isomers), the MCC in data set [3] was no less than 100 µM. In data set [4], this compound yielded a CC50 greater than 100 µM. Moreover, the concentration for half-maximal inhibition (IC50) with CCRF-CEM and in the data set with L1210 was greater than 30 µM each time. In addition, the EC50 is greater than 250 µM in data set [5]; greater than 250 µM in data set [6]; greater than 20 µM in the data set on Felid alphaherpesvirus 1; greater than 20 µM with Feline coronavirus; greater than 20 µM in the data set on Cytomegalovirus; greater than 20 µM with Human betaherpesvirus 5. Also, the concentration giving a half-maximal response (EC50) (in the data set with Human alphaherpesvirus 3 [7]; in the data set with Human alphaherpesvirus 3 [8]; with Human alphaherpesvirus 1 [9]; in [10]; in the data set on Vaccinia virus; with Human alphaherpesvirus 2) was greater than 20 µM in each case. Moreover, the EC50 with Human alphaherpesvirus 1 [11] is greater than 20 µM.
The compound `COC(=O)[C@@H](NP(=O)(Oc1ccccc1)O[C@@H]1O[C@H](CO)[C@@H](O)C1(F)F)C(C)C` (mixture of isomers) came in with an MCC in [3] of no less than 100 µM. The same compound came in with a CC50 in data set [4] greater than 100 µM. Further, the IC50 with CCRF-CEM and in the data set with L1210 was greater than 30 µM throughout. The EC50 in [5] was greater than 250 µM; in data set [6], greater than 250 µM; with Felid alphaherpesvirus 1 it was greater than 20 µM; in the data set on Feline coronavirus, greater than 20 µM; in the data set with Cytomegalovirus, greater than 20 µM; in the data set with Human betaherpesvirus 5, greater than 20 µM. Moreover, the concentration giving a half-maximal response (EC50) (with Human alphaherpesvirus 3 [7]; in the data set with Human alphaherpesvirus 3 [8]; in the data set with Human alphaherpesvirus 1 [9]; in data set [10]; in the data set on Vaccinia virus; with Human alphaherpesvirus 2) was greater than 20 µM in each case. For the same compound, the 50% effective concentration (EC50) in the data set on Human alphaherpesvirus 1 [11] was greater than 20 µM.
Regarding `COC(=O)[C@@H](NP(=O)(Oc1cccc2ccccc12)O[C@@H]1O[C@H](CO)[C@@H](O)C1(F)F)C(C)C` (mixture of isomers), the MCC in data set [3] is no less than 100 µM. Besides, the CC50 in [4] is greater than 100 µM. Besides, the IC50 in the data set with CCRF-CEM and with L1210 was greater than 30 µM each time. The EC50 was greater than 50 µM in data set [5]; greater than 50 µM in data set [6]; greater than 20 µM in the data set on Felid alphaherpesvirus 1; greater than 20 µM with Feline coronavirus; greater than 20 µM in the data set on Cytomegalovirus; greater than 20 µM in the data set with Human betaherpesvirus 5. For the same compound, the EC50 (with Human alphaherpesvirus 3 [7]; in the data set with Human alphaherpesvirus 3 [8]; in the data set with Human alphaherpesvirus 1 [9]; in [10]; in the data set on Vaccinia virus; with Human alphaherpesvirus 2) was greater than 20 µM each time. Moreover, the concentration for a half-maximal effect (EC50) in the data set on Human alphaherpesvirus 1 [11] was greater than 20 µM.
In [3], `C[C@H](NP(=O)(Oc1cccc2ccccc12)O[C@@H]1O[C@H](CO)[C@@H](O)C1(F)F)C(=O)OCC(C)(C)C` (mixture of isomers) yielded an MCC of no less than 100 µM. This compound also came in with a CC50 in data set [4] greater than 100 µM. Also, the concentration for half-maximal inhibition (IC50) with CCRF-CEM and in the data set on L1210 was greater than 30 µM each time. Further, the half-maximal effective concentration (EC50) in data set [5] is greater than 50 µM; in data set [6] it was greater than 50 µM; in the data set on Felid alphaherpesvirus 1, greater than 20 µM; with Feline coronavirus it was greater than 20 µM; in the data set on Cytomegalovirus, greater than 20 µM; in the data set on Human betaherpesvirus 5, greater than 20 µM. Moreover, the concentration giving a half-maximal response (EC50) (with Human alphaherpesvirus 3 [7]; in the data set with Human alphaherpesvirus 3 [8]; with Human alphaherpesvirus 1 [9]; in data set [10]; in the data set on Vaccinia virus; in the data set with Human alphaherpesvirus 2) was greater than 20 µM each time. In addition, the concentration giving a half-maximal response (EC50) in the data set on Human alphaherpesvirus 1 [11] was greater than 20 µM.
In data set [3], `COC(=O)[C@H](C)NP(=O)(Oc1cccc2ccccc12)O[C@@H]1O[C@H](CO)[C@@H](O)C1(F)F` (mixture of isomers) came in with an MCC of no less than 100 µM. The CC50 in data set [4] was greater than 100 µM. The IC50 with CCRF-CEM and in the data set on L1210 was greater than 30 µM throughout. Also, the 50% effective concentration (EC50) in data set [5] is greater than 50 µM; in data set [6] it was greater than 50 µM; in the data set on Felid alphaherpesvirus 1 it was greater than 20 µM; in the data set with Feline coronavirus, greater than 20 µM; with Cytomegalovirus, greater than 20 µM; in the data set on Human betaherpesvirus 5, greater than 20 µM. Further, the EC50 (in the data set on Human alphaherpesvirus 3 [7]; in the data set on Human alphaherpesvirus 3 [8]; in the data set on Human alphaherpesvirus 1 [9]; in data set [10]; in the data set with Vaccinia virus; in the data set on Human alphaherpesvirus 2) was greater than 20 µM in each case. Besides, the EC50 in the data set on Human alphaherpesvirus 1 [11] is greater than 20 µM.
